From US6395773B1, “Anti-drug resistant strain agents and antichlamydia agents” (Japan Science and Technology Corporation, priority 1999, dated 2002)
Values after ≈ are worked out from the molar mass of the structure shown.

What was measured:
[1] = test system: methicillin-resistant Staphylococcus aureus (MRSA); assay: Effect on decreasing antibiotic resistance by concomitant use of FNQ3, MRSA; conditions: for MIC: Staphylococcus aureus, 24 h, read-out: MIC of antibiotic, −FNQ3; for MIC of antibiotic, +FNQ3: concomitant FNQ3, final concentration 0.5 μg/ml; for decrease of the resistance of MRSA against the antibiotic (fraction of MIC): with the Compound (FNQ3) 0.5 μg/ml
[2] = test system: methicillin-sensitive Staphylococcus aureus (MSSA); assay: Effect on decreasing antibiotic resistance by concomitant use of FNQ3, MSSA; conditions: for MIC: Staphylococcus aureus, 24 h, read-out: MIC of antibiotic, −FNQ3; for MIC of antibiotic, +FNQ3: concomitant FNQ3, final concentration 0.5 μg/ml
[3] = test system: fluconazole-resistant Candida albicans (FRCA); assay: Proliferation inhibitory test for Candida albicans (agar medium MIC), FRCA; conditions: for MIC: Candida albicans
[4] = test system: fluconazole-sensitive Candida albicans (FSCA); assay: Proliferation inhibitory test for Candida albicans (agar medium MIC), FSCA
[5] = test system: all tested strains of Chlamydia; type: cell-based; conditions: tendency; McCoy and WI38 versus HeLa229
C. psittaci = assay: microbe, parasite or virus in culture; type: cell-based; conditions: Chlamydia psittaci, strain Cal 10
Staphylococcus aureus = assay: FNQ3 alone, growth of Staphylococcus aureus; conditions: 0.5 μg/ml
C. pneumoniae = assay: microbe, parasite or virus in culture; type: cell-based; conditions: Chlamydia pneumoniae
C. trachomatis = assay: microbe, parasite or virus in culture; type: cell-based; conditions: Chlamydia trachomatis
[6] = test system: methicillin-resistant Staphylococcus aureus (MRSA); assay: Proliferation inhibitory test for Staphylococcus aureus (agar medium MIC), MRSA; conditions: for MIC: Staphylococcus aureus, MRSA
[7] = test system: methicillin-sensitive Staphylococcus aureus (MSSA); assay: Proliferation inhibitory test for Staphylococcus aureus (agar medium MIC), MSSA; conditions: for MIC: Staphylococcus aureus, MSSA

SMILES: CC1(C)S[C@@H]2[C@H](NC(=O)[C@H](N)c3ccccc3)C(=O)N2[C@H]1C(=O)O [Ampicillin]
- MIC [1]: 32 µg/mL
- MIC of antibiotic, +FNQ3 [1]: 4 µg/mL
- decrease of the resistance of MRSA against the antibiotic (fraction of MIC) [1]: ½ to ¼
- MIC [2]: 32 µg/mL
- MIC of antibiotic, +FNQ3 [2]: 16 to 32 µg/mL

SMILES: CN(C)CCn1nnnc1SCC1=C(C(=O)O)N2C(=O)[C@@H](NC(=O)Cc3csc(N)n3)[C@H]2SC1 [Cefotiam]
- MIC [1]: 32 µg/mL
- MIC of antibiotic, +FNQ3 [1]: 16 to 32 µg/mL
- MIC [2]: 0.25 to 0.5 µg/mL
- MIC of antibiotic, +FNQ3 [2]: 0.25 µg/mL

SMILES: CC[C@H]1OC(=O)[C@H](C)[C@@H](O[C@H]2C[C@@](C)(OC)[C@@H](O)[C@H](C)O2)[C@H](C)[C@@H](O[C@@H]2O[C@H](C)C[C@H](N(C)C)[C@H]2O)[C@](C)(OC)C[C@@H](C)C(=O)[C@H](C)[C@@H](O)[C@]1(C)O [Clarithromycin]
- MIC [1]: 16 µg/mL
- MIC of antibiotic, +FNQ3 [1]: 16 µg/mL
- MIC [2]: 0.5 µg/mL
- MIC of antibiotic, +FNQ3 [2]: 0.5 to 1 µg/mL

SMILES: OC(Cn1cncn1)(Cn1cncn1)c1ccc(F)cc1F [FLCZ, fluconazole, reference compound]
- MIC ([3]; FRCA strain CA383): > 64 µg/mL
- MIC ([3]; FRCA strain CA8941): > 64 µg/mL
- MIC ([3]; FRCA strain DUNC136): > 64 µg/mL
- MIC ([3]; FRCA strain MCV7): 32 µg/mL (≈ 104 µM)
- MIC ([3]; FRCA strain S78941): > 64 µg/mL
- MIC ([3]; FRCA strain T77042): > 64 µg/mL
- MIC ([4]; Candida albicans): 0.03 µg/mL (≈ 0.098 µM)
- MIC ([4]; Candida albicans, TIMM0239): 0.13 µg/mL (≈ 0.424 µM)
- MIC ([4]; Candida albicans, TIMM1756): 0.06 µg/mL (≈ 0.196 µM)
- MIC ([4]; Candida albicans, TIMM1850): 0.06 µg/mL (≈ 0.196 µM)
- MIC ([4]; FSCA strain TA): 0.03 µg/mL (≈ 0.098 µM)

SMILES: Cc1cc2c(o1)C(=O)c1ccccc1C2=O [FNQ3, 2-methylnaphtho[2,3-b]furan-4,9-dione]
- MIC with McCoy and WI38 cells relative to HeLa229 cells [5]: approximately ½
- MIC (C. psittaci; HeLa229 cells): 1 µg/mL (≈ 4.71 µM)
- MIC (C. psittaci; McCoy cells): 0.5 µg/mL (≈ 2.36 µM)
- MIC (C. psittaci; WI 38 cells): 0.25 µg/mL (≈ 1.18 µM)
- influence on the growth of Staphylococcus aureus (Staphylococcus aureus): no influence on the growth
- MIC (C. pneumoniae; strain KKpn-1, HeLa229 cells): 0.25 µg/mL (≈ 1.18 µM)
- MIC (C. pneumoniae; strain KKpn-1, McCoy cells): 0.25 µg/mL (≈ 1.18 µM)
- MIC (C. pneumoniae; strain TW-183, HeLa229 cells): 0.6 µg/mL (≈ 2.83 µM)
- MIC (C. trachomatis; strain D, HeLa229 cells): 1 µg/mL (≈ 4.71 µM)
- MIC (C. trachomatis; strain F, HeLa229 cells): 1 µg/mL (≈ 4.71 µM)
- MIC (C. trachomatis; strain L2, HeLa229 cells): 1 µg/mL (≈ 4.71 µM)
- MIC (C. trachomatis; strain L2, McCoy cells): 0.6 µg/mL (≈ 2.83 µM)
- MIC (C. trachomatis; strain L2, WI 38 cells): 0.5 µg/mL (≈ 2.36 µM)

SMILES: Cc1cc2c(o1)C(=O)c1c(O)cccc1C2=O [FNQ13, 8-hydroxy-2-methylnaphtho[2,3-b]furan-4,9-dione]
- MIC ([3]; FRCA strain CA383): 2 µg/mL (≈ 8.76 µM)
- MIC ([3]; FRCA strain CA8941): 8 µg/mL (≈ 35.1 µM)
- MIC ([3]; FRCA strain DUNC136): 4 µg/mL (≈ 17.5 µM)
- MIC ([3]; FRCA strain MCV7): 2 µg/mL (≈ 8.76 µM)
- MIC ([3]; FRCA strain S78941): 4 µg/mL (≈ 17.5 µM)
- MIC ([3]; FRCA strain T77042): 2 µg/mL (≈ 8.76 µM)
- antibacterial activity against FRCA compared with FSCA ([3]; FRCA (resistant strain) versus FSCA (sensitive strain)): same degree of antibacterial activity
- MIC ([6]; MRSA strain 1 (Patient)): 6.25 µg/mL (≈ 27.4 µM)
- MIC ([6]; MRSA strain 2 (Patient)): 3.13 µg/mL (≈ 13.7 µM)
- MIC ([6]; MRSA strain 3 (Patient)): 3.13 µg/mL (≈ 13.7 µM)
- MIC ([6]; MRSA strain 4 (Patient)): 12.5 µg/mL (≈ 54.8 µM)
- MIC ([6]; MRSA strain 5 (Patient)): 12.5 µg/mL (≈ 54.8 µM)
- MIC ([6]; MRSA strain 6 (Patient)): 3.13 µg/mL (≈ 13.7 µM)
- MIC ([6]; MRSA strain 7 (Patient)): 6.25 µg/mL (≈ 27.4 µM)
- MIC ([6]; MRSA strain 8 (Patient)): 3.13 µg/mL (≈ 13.7 µM)
- MIC ([6]; MRSA strain 9 (Patient)): 6.25 µg/mL (≈ 27.4 µM)
- MIC ([6]; MRSA strain 10 (Patient)): 3.13 µg/mL (≈ 13.7 µM)
- MIC ([6]; MRSA strain 11 (Patient)): 6.25 µg/mL (≈ 27.4 µM)
- MIC ([6]; MRSA strain 12 (N133)): 1.56 µg/mL (≈ 6.84 µM)
- MIC ([6]; MRSA strain 13 (OF4)): 1.56 µg/mL (≈ 6.84 µM)
- MIC ([6]; MRSA strain 14 (N295)): 6.25 µg/mL (≈ 27.4 µM)
- MIC ([6]; read-out: MIC, Mean ± standard deviation, mean over 14 MRSA strains): 5.36 µg/mL (≈ 23.5 µM)
- MIC, Mean ± standard deviation ([6]; mean over 14 MRSA strains): 5.36 ± 3.5 µg/mL (≈ 23.5 µM)
- MIC ([7]; MSSA strain 1 (Patient)): 25 µg/mL (≈ 110 µM)
- MIC ([7]; MSSA strain 2 (Patient)): 6.25 µg/mL (≈ 27.4 µM)
- MIC ([7]; MSSA strain 3 (Patient)): 12.5 µg/mL (≈ 54.8 µM)
- MIC ([7]; MSSA strain 4 (Patient)): 12.5 µg/mL (≈ 54.8 µM)
- MIC ([7]; MSSA strain 5 (Patient)): 12.5 µg/mL (≈ 54.8 µM)
- MIC ([7]; MSSA strain 6 (Patient)): 6.25 µg/mL (≈ 27.4 µM)
- MIC ([7]; MSSA strain 7 (Patient)): 6.25 µg/mL (≈ 27.4 µM)
- MIC ([7]; MSSA strain 8 (Patient)): 12.5 µg/mL (≈ 54.8 µM)
- MIC ([7]; MSSA strain 9 (Patient)): 12.5 µg/mL (≈ 54.8 µM)
- MIC ([7]; MSSA strain 10 (Patient)): 12.5 µg/mL (≈ 54.8 µM)
- MIC ([7]; MSSA strain 11 (Patient)): 12.5 µg/mL (≈ 54.8 µM)
- MIC ([7]; MSSA strain 12 (1840)): 12.5 µg/mL (≈ 54.8 µM)
- MIC ([7]; read-out: MIC, Mean ± standard deviation, mean over 12 MSSA strains, p < 0.01): 12 µg/mL (≈ 52.5 µM)
- MIC, Mean ± standard deviation ([7]; mean over 12 MSSA strains, p < 0.01): 11.98 ± 4.9 µg/mL (≈ 52.5 µM)
- MIC ([4]; Candida albicans): 4 µg/mL (≈ 17.5 µM)
- MIC ([4]; Candida albicans, TIMM0239): 2 µg/mL (≈ 8.76 µM)
- MIC ([4]; Candida albicans, TIMM1756): 2 µg/mL (≈ 8.76 µM)
- MIC ([4]; Candida albicans, TIMM1850): 2 µg/mL (≈ 8.76 µM)
- MIC ([4]; FSCA strain TA): 4 µg/mL (≈ 17.5 µM)

SMILES: C[C@H]1COc2c(N3CCN(C)CC3)c(F)cc3c(=O)c(C(=O)O)cn1c23 [Levofloxacin]
- MIC [1]: 8 µg/mL
- MIC of antibiotic, +FNQ3 [1]: 4 µg/mL
- MIC [2]: 0.25 µg/mL
- MIC of antibiotic, +FNQ3 [2]: 0.25 µg/mL

SMILES: CN(C)c1ccc(O)c2c1C[C@H]1C[C@H]3[C@H](N(C)C)C(O)=C(C(N)=O)C(=O)[C@@]3(O)C(O)=C1C2=O [Minacycline]
- MIC [1]: 8 µg/mL
- MIC of antibiotic, +FNQ3 [1]: 2 to 4 µg/mL
- MIC [2]: 0.25 µg/mL
- MIC of antibiotic, +FNQ3 [2]: 0.25 µg/mL

SMILES: CC[C@H]1OC(=O)[C@H](C)[C@@H](O[C@H]2C[C@@](C)(OC)[C@@H](O)[C@H](C)O2)[C@H](C)[C@@H](O[C@@H]2O[C@H](C)C[C@H](N(C)C)[C@H]2O)[C@](C)(O)C[C@@H](C)/C(=N\OCOCCOC)[C@H](C)[C@@H](O)[C@]1(C)O [Roxithromycin]
- MIC [1]: 16 µg/mL
- MIC of antibiotic, +FNQ3 [1]: 16 µg/mL
- MIC [2]: 1 µg/mL
- MIC of antibiotic, +FNQ3 [2]: 1 µg/mL

SMILES: CN[C@H](CC(C)C)C(=O)N[C@H]1C(=O)N[C@@H](CC(N)=O)C(=O)N[C@H]2C(=O)N[C@H]3C(=O)N[C@H](C(=O)N[C@H](C(=O)O)c4cc(O)cc(O)c4-c4cc3ccc4O)[C@H](O)c3ccc(c(Cl)c3)Oc3cc2cc(c3O[C@@H]2O[C@H](CO)[C@@H](O)[C@H](O)[C@H]2O[C@H]2C[C@](C)(N)[C@H](O)[C@H](C)O2)Oc2ccc(cc2Cl)[C@H]1O [Vancomycin]
- MIC [1]: 2.5 µg/mL
- MIC of antibiotic, +FNQ3 [1]: 0.6 to 1.25 µg/mL
- decrease of the resistance of MRSA against the antibiotic (fraction of MIC) [1]: ½ to ¼
- MIC [2]: 0.6 µg/mL
- MIC of antibiotic, +FNQ3 [2]: 0.6 µg/mL

SMILES: N[C@@H](C(=O)N[C@@H]1C(=O)N2C(C(=O)O)=C(Cl)CS[C@H]12)c1ccccc1 [cefaclor]
- MIC [1]: 64 µg/mL
- MIC of antibiotic, +FNQ3 [1]: 16 µg/mL
- decrease of the resistance of MRSA against the antibiotic (fraction of MIC) [1]: ½ to ¼
- MIC [2]: 1 µg/mL
- MIC of antibiotic, +FNQ3 [2]: 1 µg/mL
